Source: US20160221921A1, “SKIN WHITENING AGENT CONTAINING NOVEL CYCLIC COMPOUND” (RNS CO.,LTD., priority 2013, published 2016)

Tests used:
[1] = tested on: B-16 mouse melanoma cells; assay: Melanin generation inhibitory effects in terms of cells; type: cell-based; conditions: 72 h, 5 μg/ml, cultured for 3 days, relative to control, read-out: Inhibition rate (%) of melanin generation
Protocol: Each of the compounds prepared according to the procedures described in Examples 1 to 29 and hydroquinone were added to a culture solution containing B-16 mouse melanoma cells, followed by experiments to determine whitening effects in terms of cells (Lotan R., Lotan D. Cancer Res., 40, pp. 3345-3350, 1980). After treating the compounds to have final concentrations of […] and […], respectively, each of these compounds was added to a culture medium containing B-16 melanoma cells and cultured for 3 days. Then, these cells were treated using trypsin, separated from a culture vessel and centrifuged, then, melanin was extracted from the cells. Melanin was dissolved by adding 1 ml of 1N sodium hydroxide solution to the extract and subjected to measurement of absorbance at 475 nm, and an amount of the generated melanin was expressed by an absorbance per unit number of cells (10^6 cells) (this procedure was repeated three times). An amount of the generated melanin relative to control was calculated as an inhibition rate (%), and results thereof are shown in Table 1 below.

[2] = tested on: B-16 mouse melanoma cells; assay: as above; type: cell-based; conditions: for inhibition at 20 µg/mL: 20 μg/ml
[3] = tested on: B-16 mouse melanoma cells; conditions: at 1 μg/ml or more
[4] = Mus musculus, 72 h, cultured for 3 days, relative to control, read-out: Inhibition rate (%) of melanin generation

| SMILES | inhibition at 5 µg/mL [1] [%] | inhibition at 20 µg/mL [2, 4] [%] | other results |
| --- | --- | --- | --- |
| CCOC(=O)c1ccccc1OCC [Example 1, 2-ethoxy benzoic acid ethyl ester] | 31 | 46 |  |
| CCCOC(=O)c1ccccc1OCCC [Example 2, 2-propoxy benzoic acid propyl ester] | 41 | 52 |  |
| CCCCOC(=O)c1ccccc1OCCCC [Example 3, 2-butoxy benzoic acid butyl ester] | 45 | 64 |  |
| CCCCCOC(=O)c1ccccc1OCCCCC [Example 4, 2-pentyloxy benzoic acid pentyl ester] | 54 | 65 |  |
| CCCCCCOC(=O)c1ccccc1OCCCCCC [Example 5, 2-hexyloxy benzoic acid hexyl ester] | 52 | 67 |  |
| CCCCCCCCOC(=O)c1ccccc1OCCCCCCCC [Example 6, 2-octyloxy benzoic acid octyl ester] | 41 | 52 |  |
| CCCCCCCCCCOC(=O)c1ccccc1OCCCCCCCCCC [Example 7, 2-decyloxy benzoic acid decyl ester] | 22 | 35 |  |
| CCOC(=O)c1cccc(OCC)c1 [Example 8, 3-ethoxy benzoic acid ethyl ester] | 27 | 42 |  |
| CCCOC(=O)c1cccc(OCCC)c1 [Example 9, 3-propoxy benzoic acid propyl ester] | 29 | 48 |  |
| CCCCOC(=O)c1cccc(OCCCC)c1 [Example 10, 3-butoxy benzoic acid butyl ester] | 38 | 54 |  |
| CCCCCOC(=O)c1cccc(OCCCCC)c1 [Example 11, 3-pentyloxy benzoic acid pentyl ester] | 49 | 62 |  |
| CCCCCCOC(=O)c1cccc(OCCCCCC)c1 [Example 12, 3-hexyloxy benzoic acid hexyl ester] | 46 | 61 |  |
| CCCCCCCCOC(=O)c1cccc(OCCCCCCCC)c1 [Example 13, 3-octyloxy benzoic acid octyl ester] | 29 | 41 |  |
| CCCCCCCCCCOC(=O)c1cccc(OCCCCCCCCCC)c1 [Example 14, 3-decyloxy benzoic acid decyl ester] | 21 | 32 |  |
| CCCCCOC(=O)c1cc(C(C)=O)ccc1OCCCCC [Example 15, 5-acetyl-2-pentyloxy benzoic acid pentyl ester] | 39 | 57 |  |
| CCCCCOC(=O)c1ccc2ccccc2c1OCCCCC [Example 16, 1-pentyloxy-2-naphthoic acid pentyl ester] | 41 | 52 |  |
| CCCCCOC(=O)c1cc2ccccc2cc1OCCCCC [Example 17, 3-pentyloxy-2-naphthoic acid pentyl ester] | 38 | 52 |  |
| CCCCCOC(=O)c1ccncc1OCCCCC [Example 18, 3-pentyloxy-4-pyridinecarboxylic acid pentyl ester] | 42 | 71 |  |
| CCCCCOC(=O)c1c(OCCCCC)cnc2ccccc12 [Example 19, 3-pentyloxy-quinoline-4-carboxylic acid pentyl ester] | 38 | 59 |  |
| CCCCCOc1ccccc1C(C)=O [Example 20, 1-(2-pentyloxy-phenyl)-ethanone] | 24 | 41 |  |
| CCCCCOc1cccc(C(C)=O)c1 [Example 21, 1-(3-pentyloxy-phenyl)-ethanone] | 25 | 45 |  |
| CCCCCOc1cc2ccccc2cc1C(C)=O [Example 22, 1-(3-pentyloxy-naphthalen-2-yl)-ethanone] | 19 | 37 |  |
| CC(=O)Oc1ccccc1C(C)=O [Example 23, acetic acid 2-acetyl-phenyl ester] | 27 | 41 |  |
| CCCCC(CC)C(=O)Oc1ccccc1C(C)=O (centres unmarked) [Example 24, 2-ethylhexanoic acid 2-acetyl-phenyl ester] | 19 | 38 |  |
| CCCCCOc1ccccc1CCC [Example 25, 1-pentyloxy-2-propyl-benzene] | 16 | 31 |  |
| CCCCC(CC)C(=O)Oc1ccccc1CCC (centres unmarked) [Example 26, 2-ethylhexanoic acid 2-propyl-phenyl ester] | 24 | 35 |  |
| CCCCC(CC)C(=O)Oc1cccc(CCC)c1 (centres unmarked) [Example 27, 2-ethylhexanoic acid 3-propyl-phenyl ester] | 23 | 41 |  |
| CCCCC(CC)COC(=O)c1ccccc1O (centres unmarked) [Example 28, 2-hydroxy benzoic acid 2-ethylhexyl ester] | 27 | 39 |  |
| CCCCC(CC)COC(=O)c1cccc(O)c1 (centres unmarked) [Example 29, 3-hydroxy benzoic acid 2-ethylhexyl ester] | 26 | 37 |  |
| Oc1ccc(O)cc1 [Hydroquinone, hydroquinone, reference compound] |  |  | Inhibition rate (%) of melanin generation ([2]; 5 μg/ml, cultured for 3 days, relative to control): Apoptosis; inhibition at 1 µg/mL ([2]; Mus musculus, 72 h, 1 μg/ml, cultured for 3 days, relative to control, read-out: Inhibition rate (%) of melanin generation): 48%; melanin generation inhibitory effects (in words) ([2]; cultured mouse melanoma cells): strong effects of inhibiting melanin generation at a low concentration; cytotoxicity [3]: serious cytotoxicity |
